Assay results reported in the NIST ThermoML archive (doi:10.1021/je020228x).
± gives the expanded uncertainty stated by the source.

Key:
[1] = Crystal
[2] = molar enthalpy of transition or fusion; conditions: Crystal, DSC
[3] = molar heat capacity at constant pressure; conditions: 445.51 K; 101.33 kPa; Crystal; Small sample (50 mg) DSC

| SMILES | Normal melting temperature ([1]; DTA) | molar enthalpy of transition or fusion ([2]; 383.93 K) | molar enthalpy of transition or fusion ([2]; 451.43 K) | Normal melting temperature ([1]; visual observation) | molar enthalpy of transition or fusion ([2]; 384.43 K) | molar enthalpy of transition or fusion ([2]; 445.51 K) | molar heat capacity at constant pressure [3] |
| --- | --- | --- | --- | --- | --- | --- | --- |
| Cc1nc2ccccc2[nH]1 [2-methylbenzimidazole] | 178.28 °C | 0.14 kcal/mol | 4.9 kcal/mol | – | – | – | – |
| CC(C)(C)O [2-methylpropan-2-ol] | – | – | – | 24.84 ± 0.39 °C | – | – | – |
| c1ccc2[nH]cnc2c1 [benzimidazole] | 172.36 °C | – | – | – | 0.17 kcal/mol | 4.89 kcal/mol | 49.09 J/K/mol |
